{"source": "patent US10772909B2", "about": "“System and method for insulin-mimetic of cartilage, bone, or osteochondral repair and piezoelectric composite scaffold” (New Jersey Institute of Technology, priority 2016, dated 2020)", "key": {"Human MSCs [1]": {"system": "Human MSCs", "test": "MSC growth on PCL scaffolds in growth medium (PicoGreen ds DNA cell number)", "format": "cell-based", "conditions": "GM; for cell number, change from days 4 to 7: p<0.05; for cell number compared to the other groups: days 7 and 11", "description": "MSCs were cultured on the scaffolds in the presence of Na2WO4 (Na2WO4.2H2O, MW=329.85 g/mol; Sigma Aldrich) in the range of 0.01-50 mM to determine which concentrations supported cell growth. Before cell seeding, scaffolds were cut into 6 mm diameter disks using a biopsy punch (Integra Miltek, York, Pa.), sterilized in 100% ethanol for 20 minutes and were air dried overnight. Cryopreserved MSCs were thawed and expanded in tissue culture treated polystyrene flasks (Nunc, Thermo Fisher Scientific, Waltham, Mass., USA) in growth medium (GM) comprised of Dulbecco's Modified Eagle's Medium (DMEM, Invitrogen, Grand Island, N.Y., USA), 10% fetal bovine serum (Hyclone, Thermo Fisher Scientific) and 1% antibiotic-antimycotic (Invitrogen) at 37° C. and 5% CO2 until 70-80% confluent. Cells were trypsinized using 0.25% Trypsin-EDTA (Thermo Fisher Scientific), resuspended in GM and then seeded onto scaffolds at 3.5×10^4 cells/cm^2 and cultured for 11 days in GM alone or with Na2WO4. Na2WO4 was added to GM leading to final Na2WO4 concentrations of 0, 0.01, 0.1, 1, 10 and 50 mM. Samples (n=4) were harvested and analyzed at days 4, 7 and 11 for cell number using the PicoGreen® ds DNA assay (Life Technologies).\nMSCs of known cell number were used as a standard. Standards and samples were prepared by lysing the cells using 0.1% Triton X-100 (Sigma-Aldrich, Mo., USA). The cell lysate of samples and standards (n=4 per group) was mixed with an equal volume of Pico Green dye, which binds to the double-stranded (ds) DNA. Fluorescence intensity was measured with a microplate reader ((FLX800, Biotek Instruments, Vt., USA)) at 480 nm excitation and 520 nm emission. A standard curve of known cell number was used to determine the sample cell number."}, "Human MSCs [2]": {"system": "Human MSCs", "test": "Chondrogenesis culture: sGAG production (Blyscan)", "format": "cell-based", "description": "(§1) Chondrogenesis Culture. Cryopreserved MSCs were thawed and expanded in GM until 70-80% confluent. Cells were trypsininzed and then seeded on 6 mm diameter scaffold disks at 1.76×10^5 cells/cm^2 and cultured for 28 days in GM, chondrogenic induction medium (CCM), or CCM without insulin, according to previously published methods. CCM consisted of DMEM high glucose containing 4 mM L-glutamine (Invitrogen, Grand Island, N.Y., USA), 0.1 μM dexamethasone (Sigma-Aldrich), 0.17 mM ascorbic acid-2-phosphate (Wako Chemicals, Richmond, Va., USA), 1% ITS+(6.25 µg/mL insulin, 6.25 µg/mL transferrin, 6.25 ng/mL selenous acid, 5.35 μg/ml linoleic acid and 1.25 mg of bovine serum albumin) Premix Culture Supplement (Corning, Corning, N.Y., USA), 1× antibiotic-antimycotic, 1 mM sodium pyruvate (Sigma-Aldrich), 0.35 mM proline (Sigma-Aldrich), and 10 ng/mL recombinant human transforming growth factor-beta3 (TGF-β3, ProSpec, Israel). CCM without insulin consisted of CCM where the 1% ITS+Premix Culture Supplement was substituted with 1% stock solution (6.25 μg/ml transferrin and 6.25 ng/ml selenous acid, 5.35 μg/ml lionleic acid (Sigma-Aldrich) and 1.25 mg of bovine serum albumin (Fisher Scientific). Na2WO4 was added to all media leading to final Na2WO4 concentrations of 0, 0.01, 0.1 and 1 mM. Samples were harvested and analyzed for sulfated glycosaminoglycans (sGAG), cell number and gene expression at day 14 and 28 and for collagen type II and immunostaining at day 28.\nProduction of sGAG and cell number were determined. Samples were digested using papain (Sigma-Aldrich, Mo., USA) buffer overnight at 65 C. ° following manufacturer's protocol. The sGAG assay is used to measure the total sulfated proteoglycan content using Blyscan sGAG Assay Kit (Biocolor, UK). Cell lysate of samples (n=4 per group) and color reagent were combined in transparent 96-well plate and the absorbance at 656 nm was measured using a microplate spectrophotometer (EMax, Molecular Devices, Melville, N.Y., USA). sGAG concentration was determined relative to chondroitin sulfate standard curve. PicoGreen® ds DNA assay (Life Technologies) was used to determine the cell number. MSCs of known cell number were used as standards. Standards were prepared by lysing the cells using papain buffer. The cell lysate of samples and standards (n=4 per group) was mixed with an equal volume of Pico Green reagent. Fluorescence intensity was measured with a microplate reader ((FLX800, Biotek Instruments, Vt., USA)) at 480 nm excitation and 520 nm emission. A standard curve of known cell number was used to determine the sample cell number. GAG production was normalized to cell number."}, "SOX-9": {"system": "SOX-9", "test": "Chondrogenesis culture: gene expression by RT-PCR, SOX-9", "format": "cell-based, human", "description": "as §1\nGene expression was evaluated using quantitative reverse transcription (RT)-polymerase chain reaction (PCR) analysis. RT-PCR was performed with RNeasy Micro Kit and SYBR Green RT-PCR Kit (Qiagen; Valencia, Calif., USA) using the MX4000 detection system (Stratagene) according to the manufacturer's protocol. Relative gene expression of SOX-9, aggrecan and collagen type II were determined. Samples (n=4 per group) were harvested and digested using Lysis Buffer. RNA was isolated from the samples using RNeasy Micro Kit (Qiagen) including DNA digestion step (RNase Free DNase Set; Qiagen). The RNA quantity and integrity were determined by measuring the absorbance at 260 nm and the absorbance ratio of 260 nm/280 nm, respectively, using Nanodrop™ Spectrophotometer (Thermo Fisher Scientific). Quantitative PCR analysis was performed using QuantiTect SYBR Green supermix including the QuantiTect Primer Assays. The reverse transcription step ran for 30 minutes at 50° C., 15 minutes at 95° C. of PCR activation followed by forty cycle of amplification consisting of 15 s denaturation at 94° C., 30 s of annealing at 55° C., and 30 s of extension at 72° C. A melting curve analysis of the RT-PCR product was included for each reaction. Samples were analyzed in triplicate and the value of each gene was normalized to the reference gene ribosomal protein, large, P0 (RPLP0) for the same sample (ΔCT). Primers were purchased from Qiagen (Hs_ACAN, QT00001365; Hs_SOX9, QT00001498; Hs_COL2A1, QT00049518; and Hs_RPLP0 QT00075012)."}, "[3]": {"system": "human peripheral blood lymphocytes", "conditions": "cited from earlier work"}, "[4]": {"conditions": "0.01 mM Na2WO4, CCM, day 28, p<0.05"}, "[5]": {"conditions": "1 mM Na2WO4, CCM without insulin, day 28"}}, "note": "Read-outs that look alike come from different tables or passages of the source."}
{"molecule": "[Na+].[Na+].[O]=[W](=[O])([O-])[O-]", "note": "[Na2WO4, sodium tungstate]", "values": [{"measurement": "cell number, change from days 4 to 7", "setting": "Human MSCs [1]; 0.01 mM Na2WO4", "value": "significantly increased in cell numbers"}, {"measurement": "cell number, change from days 4 to 7", "setting": "Human MSCs [1]; 0.1 mM Na2WO4", "value": "significantly increased in cell numbers"}, {"measurement": "cell number compared to the other groups", "setting": "Human MSCs [1]; 1 mM Na2WO4", "value": "significantly lower cell numbers"}, {"measurement": "cell number compared to the other groups", "setting": "Human MSCs [1]; 10 mM Na2WO4", "value": "significantly lower cell numbers"}, {"measurement": "cell number compared to the other groups", "setting": "Human MSCs [1]; 50 mM Na2WO4", "value": "significantly lower cell numbers"}, {"measurement": "sGAG production, change between days 14 and 28", "setting": "Human MSCs [2]; 0.01 mM Na2WO4, CCM", "value": "significant increase in sGAG production"}, {"measurement": "sGAG production vs 0 mM group", "setting": "Human MSCs [2]; 0.01 mM Na2WO4, CCM without insulin", "value": "higher than 0 mM group in CCM without insulin but not significantly"}, {"measurement": "sGAG production vs all other groups", "setting": "Human MSCs [2]; 0.01 mM Na2WO4, CCM, day 28, p<0.005", "value": "higher sGAG production than all other groups"}, {"measurement": "normalized sGAG to cell number vs 0 and 1 mM groups", "setting": "Human MSCs [2]; [4]", "value": "significantly higher"}, {"measurement": "sGAG production vs 0 mM group", "setting": "Human MSCs [2]; 0.1 mM Na2WO4, CCM without insulin", "value": "higher than 0 mM group in CCM without insulin but not significantly"}, {"measurement": "sGAG production vs GM alone", "setting": "Human MSCs [2]; 0.1 mM Na2WO4, GM, day 14", "value": "significantly higher"}, {"measurement": "normalized sGAG to cell number vs 0.01 mM", "setting": "Human MSCs [2]; [5]", "value": "significantly lower normalized sGAG to cell number"}, {"measurement": "sGAG vs all other groups", "setting": "Human MSCs [2]; [5]", "value": "significantly lower"}, {"measurement": "SOX-9 gene expression vs 0 mM", "setting": "SOX-9; 0.01 mM Na2WO4, CCM without insulin, day 14", "value": "significantly higher"}, {"measurement": "SOX-9 gene expression vs 0 mM", "setting": "SOX-9; [4]", "value": "significantly higher SOX-9"}, {"measurement": "SOX-9 gene expression", "setting": "SOX-9; 0.1 mM Na2WO4, CCM, day 14, p<0.05", "value": "highest SOX-9 gene expression"}, {"measurement": "SOX-9 gene expression vs 0 mM", "setting": "SOX-9; 0.1 mM Na2WO4, CCM, day 28, p<0.01", "value": "significantly higher SOX-9"}, {"measurement": "SOX-9 gene expression", "setting": "SOX-9; 1 mM Na2WO4, CCM", "value": "lowest gene expression"}, {"measurement": "SOX-9 gene expression (chondrogenic genes)", "setting": "SOX-9; GM with Na2WO4", "value": "no significant upregulation of chondrogenic genes"}, {"measurement": "immune response", "setting": "[3]; 0.01 mM", "value": "did not stimulate an immune response"}, {"measurement": "immune response", "setting": "[3]; 0.1 mM", "value": "did not stimulate an immune response"}, {"measurement": "toxicity", "setting": "[3]; 1 mM dose", "value": "significant toxicity occurred"}]}
